Source: the supplement of paper PMC10883282
± gives the standard deviation of the averaged measurements.

What was measured:
Experiment in all cases: relative viability vs DMSO control (72 h) (fraction); higher = more viable cells
[1] = system: SW1353
Summary of the method: (§1)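 Sarcoma cell lines were seeded in 384-well plates at densities set to reach 80–90% confluence. After 24 h, 2.5 µl of serially diluted compound was added (source plates 10 mM to 0.0002 mM), and plates were held 72 h at 37 °C, 5% CO2, with 0.1% DMSO vehicle and a 5 µM positive control. Relative viability came from ATPLite readings as percent growth, averaged over up to triplicate wells. Data were rescaled so full viability equals 1 and none equals 0.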

[2] = system: KHOS-NP
Summary of the method: as §1

[3] = system: A204
Summary of the method: as §1

[4] = system: HT1080
Summary of the method: as §1

[5] = system: SK-ES-1
Summary of the method: as §1

[6] = system: SW982
Summary of the method: as §1

[7] = system: KHOS-240S
Summary of the method: as §1

[8] = system: RD-ES
Summary of the method: as §1

[9] = system: SW684
Summary of the method: as §1

[10] = system: SYO-1
Summary of the method: as §1

[11] = system: G401
Summary of the method: as §1

[12] = system: SW872
Summary of the method: as §1

COc1cc2ncnc(Nc3cccc(Cl)c3F)c2cc1OC(=O)N1CCN(C)C[C@H]1C [AZD-3759]
Settings | relative viability
[1], 0.00017 µM | 1.02 ± 0.019
[1], 0.00051 µM | 1.02 ± 0.049
[1], 0.00152 µM | 1.04 ± 0.017
[1], 0.00457 µM | 0.998 ± 0.015
[1], 0.01372 µM | 0.964 ± 0.021
[1], 0.04115 µM | 0.983 ± 0.025
[1], 0.1235 µM | 0.979 ± 0.037
[1], 0.3704 µM | 0.868 ± 0.046
[1], 1.111 µM | 0.877 ± 0.025
[1], 3.333 µM | 0.8196 ± 0.0025
[1], 10 µM | 0.769 ± 0.025
[2], 0.00017 µM | 1.1 ± 0.033
[2], 0.00051 µM | 1.11 ± 0.019
[2], 0.00152 µM | 1.105 ± 0.006
[2], 0.00457 µM | 1.1 ± 0.019
[2], 0.01372 µM | 1.109 ± 0.011
[2], 0.04115 µM | 1.07 ± 0.019
[2], 0.1235 µM | 1.09 ± 0.018
[2], 0.3704 µM | 1.04 ± 0.028
[2], 1.111 µM | 1.07 ± 0.031
[2], 3.333 µM | 0.998 ± 0.017
[2], 10 µM | 1.02 ± 0.036
[3], 0.00017 µM | 1.051 ± 0.0099
[3], 0.00051 µM | 1.1 ± 0.013
[3], 0.00152 µM | 1.09 ± 0.043
[3], 0.00457 µM | 1.08 ± 0.025
[3], 0.01372 µM | 1.05 ± 0.072
[3], 0.04115 µM | 1.08 ± 0.046
[3], 0.1235 µM | 1.04 ± 0.044
[3], 0.3704 µM | 1.04 ± 0.017
[3], 1.111 µM | 1.03 ± 0.055
[3], 3.333 µM | 0.954 ± 0.046
[3], 10 µM | 0.883 ± 0.032
[4], 0.00017 µM | 1.06 ± 0.033
[4], 0.00051 µM | 1.04 ± 0.017
[4], 0.00152 µM | 1.02 ± 0.016
[4], 0.00457 µM | 1.04 ± 0.015
[4], 0.01372 µM | 1.03 ± 0.016
[4], 0.04115 µM | 1.03 ± 0.051
[4], 0.1235 µM | 1.01 ± 0.041
[4], 0.3704 µM | 1.02 ± 0.019
[4], 1.111 µM | 1.026 ± 0.0062
[4], 3.333 µM | 1 ± 0.018
[4], 10 µM | 1.02 ± 0.0046
[5], 0.00017 µM | 1.09 ± 0.035
[5], 0.00051 µM | 0.999 ± 0.046
[5], 0.00152 µM | 1.06 ± 0.059
[5], 0.00457 µM | 1.01 ± 0.014
[5], 0.01372 µM | 1.06 ± 0.037
[5], 0.04115 µM | 1.06 ± 0.091
[5], 0.1235 µM | 0.978 ± 0.049
[5], 0.3704 µM | 0.999 ± 0.063
[5], 1.111 µM | 1.02 ± 0.031
[5], 3.333 µM | 0.908 ± 0.046
[5], 10 µM | 0.83 ± 0.052
[6], 0.00017 µM | 1.06 ± 0.027
[6], 0.00051 µM | 1.02 ± 0.027
[6], 0.00152 µM | 1.03 ± 0.025
[6], 0.00457 µM | 1.06 ± 0.021
[6], 0.01372 µM | 1.07 ± 0.054
[6], 0.04115 µM | 1.04 ± 0.014
[6], 0.1235 µM | 1.07 ± 0.04
[6], 0.3704 µM | 1.07 ± 0.041
[6], 1.111 µM | 1.01 ± 0.037
[6], 3.333 µM | 0.945 ± 0.015
[6], 10 µM | 0.889 ± 0.029
[7], 0.00017 µM | 1.04 ± 0.021
[7], 0.00051 µM | 1.06 ± 0.022
[7], 0.00152 µM | 1.06 ± 0.028
[7], 0.00457 µM | 1.06 ± 0.017
[7], 0.01372 µM | 1.05 ± 0.024
[7], 0.04115 µM | 1.04 ± 0.014
[7], 0.1235 µM | 1.05 ± 0.069
[7], 0.3704 µM | 1.04 ± 0.061
[7], 1.111 µM | 0.9537 ± 0.005
[7], 3.333 µM | 0.976 ± 0.015
[7], 10 µM | 0.878 ± 0.037
[8], 0.00017 µM | 0.97 ± 0.012
[8], 0.00051 µM | 0.967 ± 0.017
[8], 0.00152 µM | 0.9816 ± 0.0069
[8], 0.00457 µM | 0.977 ± 0.022
[8], 0.01372 µM | 0.983 ± 0.016
[8], 0.04115 µM | 0.991 ± 0.031
[8], 0.1235 µM | 0.9757 ± 0.0083
[8], 0.3704 µM | 0.9684 ± 0.0087
[8], 1.111 µM | 0.961 ± 0.029
[8], 3.333 µM | 0.948 ± 0.021
[8], 10 µM | 0.915 ± 0.048
[9], 0.00017 µM | 1.14 ± 0.061
[9], 0.00051 µM | 1.16 ± 0.043
[9], 0.00152 µM | 1.16 ± 0.025
[9], 0.00457 µM | 1.13 ± 0.035
[9], 0.01372 µM | 1.15 ± 0.016
[9], 0.04115 µM | 1.12 ± 0.045
[9], 0.1235 µM | 1.11 ± 0.031
[9], 0.3704 µM | 1.14 ± 0.022
[9], 1.111 µM | 1.16 ± 0.017
[9], 3.333 µM | 1.1 ± 0.05
[9], 10 µM | 1.05 ± 0.053
[10], 0.00017 µM | 1.03 ± 0.029
[10], 0.00051 µM | 0.995 ± 0.045
[10], 0.00152 µM | 0.987 ± 0.058
[10], 0.00457 µM | 0.977 ± 0.055
[10], 0.01372 µM | 0.951 ± 0.062
[10], 0.04115 µM | 0.947 ± 0.089
[10], 0.1235 µM | 0.891 ± 0.1
[10], 0.3704 µM | 0.896 ± 0.067
[10], 1.111 µM | 0.851 ± 0.031
[10], 3.333 µM | 0.783 ± 0.095
[10], 10 µM | 0.614 ± 0.074
[11], 0.00017 µM | 1.03 ± 0.0092
[11], 0.00051 µM | 1.06 ± 0.029
[11], 0.00152 µM | 1.04 ± 0.049
[11], 0.00457 µM | 1.01 ± 0.043
[11], 0.01372 µM | 1.02 ± 0.056
[11], 0.04115 µM | 1.02 ± 0.02
[11], 0.1235 µM | 1.04 ± 0.037
[11], 0.3704 µM | 1.04 ± 0.062
[11], 1.111 µM | 1 ± 0.052
[11], 3.333 µM | 0.985 ± 0.033
[11], 10 µM | 0.939 ± 0.036
[12], 0.00017 µM | 1.07 ± 0.019
[12], 0.00051 µM | 1.1 ± 0.046
[12], 0.00152 µM | 1.06 ± 0.03
[12], 0.00457 µM | 1.058 ± 0.0043
[12], 0.01372 µM | 1.032 ± 0.0065
[12], 0.04115 µM | 1.05 ± 0.01
[12], 0.1235 µM | 1.04 ± 0.025
[12], 0.3704 µM | 1.02 ± 0.04
[12], 1.111 µM | 1.04 ± 0.02
[12], 3.333 µM | 0.9635 ± 0.0039
[12], 10 µM | 0.828 ± 0.048
